Tested on: IUP
Assay: Phenylephrine-induced IUP in a conscious canine model
Type: in vivo
Conditions: conscious dog
Experimental: In-Vivo Evaluation of α1-Adrenergic Antagonists on IUP and MAP in a Conscious Canine Model
An anesthetized dog was fitted with a balloon catheter for the measurement of changes in prostatic IUP and with a number of implanted pressure transducers and telemetry transmitters for measuring MAP.
The pressor effects of challenge doses […] of the α-adrenergic agonist phenylephrine upon IUP and MAP were measured before and at various time points after a single dose (p.o.) of an α-adrenergic antagonist test compound (Compound 69) of the present invention.
Each treatment group was dosed with a test compound (0.1, 0.3, 1.0 and 3.0 mg/kg) in four separate experiments. The first challenge dose of phenylephrine for each treatment group was administered at the time of the test compound dose (time 0). The value for the first challenge dose represents an average of up to three challenge doses administered prior to time 0.
Subsequent challenge doses for all treatment groups were administered at 30 min. then one hour and two hours after time 0.
The final challenge doses for the 0.1 and 0.3 mg/kg groups were administered at four and six hours after time 0. The final challenge doses for the 1.0 mg/kg group were administered at four, six and eight hours after time 0. The final challenge doses for the 3.0 mg/kg group were administered at four, six, 12 and 24 hours after time 0.
A 7F Fogarty balloon catheter lubricated with a water-soluble jelly was inserted into the urethra and advanced into the bladder (approximately 40 cm). The balloon was inflated with approximately water (0.2 mL). The catheter was slowly withdrawn from the bladder to just past the point of first resistance from the bladder neck in order to position the balloon within the prostatic urethra. The balloon was then inflated to approximately 0.7 mL. The balloon port of the catheter was connected to a Gould Statham pressure transducer, the output of which was connected to the pressure input of a Physio Control VSM1 Patient Monitor.
A test compound was administered via the cephalic or saphenous vein using an appropriately sized IV catheter (Surflo, Terumo Medical Corporation or equivalent).
Prior to test compound administration, IUP and MAP responses to an individualized dose of phenylephrine (either 10 or 15 μg/kg IV, depending on the individual animal's response) was repeated 2 to 3 times to establish a baseline response. After test compound administration, the individualized phenylephrine dose was administered to each animal at predetermined intervals over a period of up to 24 hours.
Data for phenylephrine-induced changes in IUP and MAP were tabulated for each treatment group and each experiment. A mean value and standard deviation for the phenylephrine-induced changes to the effect of a test compound on IUP and MAP at each dose was calculated and tabulated for each treatment group over the length of the study.

For `COc1ccc(S(=O)(=O)N[C@H]2CC[C@@H](N3CCN(c4ccccc4OCC(F)(F)F)CC3)CC2)cc1OC` [Cpd 69, 3,4-Dimethoxy-N-cis-(4-{4-[2-(2,2,2-trifluoro-ethoxy)-phenyl]-piperazin-1-yl}-cyclohexyl)-benzenesulfonamide], the “IUP, normalized % of baseline (mean)” value (0.1 mg/kg p.o., 0 hrs (baseline)) was 100%, the “IUP, normalized % of baseline (mean)” value (0.1 mg/kg p.o., 0.5 hrs after dose) was 87.3% and the “IUP, normalized % of baseline (mean)” value (0.1 mg/kg p.o., 1 hrs after dose) was 78.3%. For the same molecule, the “IUP, normalized % of baseline (mean)” value (0.1 mg/kg p.o., 2 hrs after dose) was 78.8%, the “IUP, normalized % of baseline (mean)” value (0.1 mg/kg p.o., 4 hrs after dose) was 82.5% and the “IUP, normalized % of baseline (mean)” value (0.1 mg/kg p.o., 6 hrs after dose) was 86.5%. The “IUP, normalized % of baseline (mean)” value (0.3 mg/kg p.o., 0 hrs (baseline)) was 100%, the “IUP, normalized % of baseline (mean)” value (0.3 mg/kg p.o., 0.5 hrs after dose) was 63.0% and the “IUP, normalized % of baseline (mean)” value (0.3 mg/kg p.o., 1 hrs after dose) was 47.0%. For the same molecule, the “IUP, normalized % of baseline (mean)” value (0.3 mg/kg p.o., 2 hrs after dose) was 51.1%, the “IUP, normalized % of baseline (mean)” value (0.3 mg/kg p.o., 4 hrs after dose) was 70.0% and the “IUP, normalized % of baseline (mean)” value (0.3 mg/kg p.o., 6 hrs after dose) was 84.4%. The “IUP, normalized % of baseline (mean)” value (1.0 mg/kg p.o., 0 hrs (baseline)) was 100%, the “IUP, normalized % of baseline (mean)” value (1.0 mg/kg p.o., 0.5 hrs after dose) was 32.9% and the “IUP, normalized % of baseline (mean)” value (1.0 mg/kg p.o., 1 hrs after dose) was 20.6%. The “IUP, normalized % of baseline (mean)” value (1.0 mg/kg p.o., 2 hrs after dose) was 28.6%, the “IUP, normalized % of baseline (mean)” value (1.0 mg/kg p.o., 4 hrs after dose) was 49.0% and the “IUP, normalized % of baseline (mean)” value (1.0 mg/kg p.o., 6 hrs after dose) was 66.3%. For the same molecule, the “IUP, normalized % of baseline (mean)” value (1.0 mg/kg p.o., 8 hrs after dose) was 70.4%, the “IUP, normalized % of baseline (mean)” value (3.0 mg/kg p.o., 0 hrs (baseline)) was 100% and the “IUP, normalized % of baseline (mean)” value (3.0 mg/kg p.o., 0.5 hrs after dose) was 5.2%. For the same molecule, the “IUP, normalized % of baseline (mean)” value (3.0 mg/kg p.o., 1 hrs after dose) was 2.2%, the “IUP, normalized % of baseline (mean)” value (3.0 mg/kg p.o., 2 hrs after dose) was 7.0% and the “IUP, normalized % of baseline (mean)” value (3.0 mg/kg p.o., 4 hrs after dose) was 17.1%. The “IUP, normalized % of baseline (mean)” value (3.0 mg/kg p.o., 6 hrs after dose) was 31.6%, the “IUP, normalized % of baseline (mean)” value (3.0 mg/kg p.o., 12 hrs after dose) was 67.7% and the “IUP, normalized % of baseline (mean)” value (3.0 mg/kg p.o., 24 hrs after dose) was 93.8%.
